Measurements from patent US20030181436A1, “Treatment for AIDS, HIV, and other related diseases and compounds for use therewith” (priority 2001, published 2003).

Columns and labels:
U1 cells = experiment: U1 assay, compound toxicity by MTS dye reduction; type: cell-based; set-up: TC50: unit not given here
Procedure: At assay termination the assay plates were stained with the soluble tetrazolium-based dye MTS (CellTiter® Reagent, Promega) to determined cell viability and quantify compound toxicity. […] At termination of the assay 20 μL of MTS reagent was added per well. The wells were incubated for 4 h at 37° C., 5% CO2. Adhesive plate scalers were used in place of the lids, the sealed plate was inverted several times to mix the soluble formazan product and the plate was read spectrophotometrically at 490 nm with a 650 nm reference wavelength on a Molecular Devices Vmax plate reader.
U1 and ACH-2 cells were obtained from the AIDS Research and Reference Reagent Program and maintained under standard culture conditions in RPMI 1640 supplemented with 10% fetal bovine serum (heat inactivated), supplemented with 2 mM […], 100U/ml penicillin and 100 μg/ml, streptomycin. U1 cells were derived from the histocytic leukemia cell line U937, and contain a single integrated copy (HIV IIIB) […] a cytokine and/or phorbol inducible provirus. ACH-2 cells are derived from the A3.01 T lymphoblastic cell line, and contain 2 copies of the HIV IIIB provirus, however only one is cytokine and/or phorbol inducible. Cultures were maintained in such a way as to ensure exponential growth of the populations. At the time of the assay, cells were collected by centrifugation and counted by hemacytometer. If cell viability by Trypan Blue dye exclusion was less than 70% the assay was terminated. The cells were adjusted to 5×10^4 cells/mL and 100 μL, placed in 96 well plates with 100 μL media containing a final concentration of […] TNFα and the test compound. Cultures were incubated for 3 days and supernatants harvested. Compound toxicity was determined by MTS dye reduction. Virus expression was measured by supernatant reverse transcriptasc activity.

PBMCs = type: cell-based, Human
Procedure: Peripheral blood […] cells (PBMCs) were obtained from normal hepatitis B and C and HIV-1 negative donors by ficoll hypaque gradient separation. Briefly, anti-coagulated blood was diluted 1:1 with Dulbecco's phosphate buffered saline without Ca^+2 and Mg^+@ (PBS) and layered over 14 mL of Lymphocyte separation media in a 50 ml centrifuge tube. Tubes were then centrifuged for 30 minutes at 600×g. Banded PBLs were gently aspirated from the resulting interface and subsequently washed 2× with PBS by low speed centrifugation. The mononuclear cells were counted, viability determined by Trypan Blue dye exclusion and resuspended in RPMI 1640 medium supplemented with 15% FBS (heat inactivated), 2 mM L-glutamine, 100 U/mL penicillin, 100 μg/mL streptomycin, and 10 μg/mL gentamycin with 2 μg/mL phytohemagluttin (PHA) at 1×10^6 cells/mL. The cells were cultured for 48 to 72 h at 37° C., 5%, C^02. Following incubation, cells were collected by centrifugation, washed and resuspended in RPMI 1640 supplemented with 15% FBS (heat inactivated), 2 mM L-glutamine, 100 U/mL penicillin, 100 μg/mL streptomycin, and 10 μg/mL gentamycin with 40 U/mL, recombinant IL-2 (R & D Systems, Minneapolis, Minn.). IL-2 was included in the culture medium to maintain the cell division initiated by the PHA mitogenic stimulation. The cultures were then maintained until use by ½ culture volume change with fresh IL-2 containing medium every 3 days.
Human peripheral blood mononuclear cells from a minimum of 2 donors, that were blasted with PHA and IL-2, were counted, viability determined by Trypan Blue dye exclusion and mixed in equal ratios. Pooled donors were used to minimize the variability observed between individual donors which results from quantitative and qualitative differences in HIV infection and overall response to the PHA and IL-2 of primary lymphocyte populations. […] The assay was incubated for 6 days in a humidified atmosphere at 37° C., 5% CO2, the plates analyzed for cell viability by MTS dye reduction or incorporation of [^3H] metabolite incorporation.
[^3H]Uridine, [^3H] thymidine or [^3H]leucine incorporation were measured in the following manner. […] Incorporation was then determined on a Wallac Microbeta counter following lysis of the cells with H2O and capture on glass fiber filters using a Skatron harvester.
At assay termination the assay plates were stained with the soluble tetrazolium-based dye MTS (CellTiter® Reagent, Promega) to determined cell viability and quantify compound toxicity. MTS is metabolized by the mitochondria enzymes of metabolically active cells to a soluble formazan product, allowing the rapid quantitative analysis cell viability and compound cytotoxicity. […]

## Potassium Iodiscorbate [Compound K]
U1 cells; 0.00063 μM, exp 2
  % CC: 118.9%
  TOXICITY VALUES (MTS) MEAN: 1.546 O. D.
U1 cells; 0.002 μM, exp 2
  % CC: 119.4%
  TOXICITY VALUES (MTS) MEAN: 1.553 O. D.
U1 cells; 0.00625 μM, exp 2
  % CC: 97.8%
  TOXICITY VALUES (MTS) MEAN: 1.271 O. D.
U1 cells; 0.0625 μM, exp 2
  % CC: 94.0%
  TOXICITY VALUES (MTS) MEAN: 1.222 O. D.
U1 cells; 0.2 μM [c7], exp 2
  % CC: 84.8%
  TOXICITY VALUES (MTS) MEAN: 1.103 O. D.
U1 cells; 0.2 μM [c9], exp 2
  % CC: 101.5%
  TOXICITY VALUES (MTS) MEAN: 1.320 O. D.
U1 cells; 0.625 μM, exp 2
  % CC: 93.4%
  TOXICITY VALUES (MTS) MEAN: 1.214 O. D.
U1 cells; 2 μM, exp 2
  % CC: 89.1%
  TOXICITY VALUES (MTS) MEAN: 1.158 O. D.
U1 cells; 6.25 μM, exp 2
  % CC: 83.3%
  TOXICITY VALUES (MTS) MEAN: 1.083 O. D.
U1 cells; 20 μM, exp 2
  % CC: 70.3%
  TOXICITY VALUES (MTS) MEAN: 0.913 O. D.
U1 cells; 62.5 μM, exp 2
  % CC: 80.8%
  TOXICITY VALUES (MTS) MEAN: 1.050 O. D.
U1 cells; 200 μM, exp 2
  % CC: 26.3%
  TOXICITY VALUES (MTS) MEAN: 0.341 O. D.
PBMCs
  TC50 in PBMCs by MTS: 499 µg/mL
  non-toxic to PBMCs at concentrations: above 400 μg/ml
  protein (leucine incorporation) and RNA (uridine incorporation) production start to drop: above 32 μg/ml

## Zinc Iodiscorbate [Compound Z]
U1 cells; 0.00063 ug/ml, exp 2
  TOXICITY VALUES MEAN: 1.055 O. D.
U1 cells; 0.002 ug/ml, exp 2
  % CC: 90.5%
  TOXICITY VALUES MEAN: 0.963 O. D.
U1 cells; 0.00625 ug/ml, exp 2
  TOXICITY VALUES MEAN: 1.103 O. D.
U1 cells; 0.02 ug/ml, exp 2
  TOXICITY VALUES MEAN: 1.064 O. D.
U1 cells; 0.0625 ug/ml, exp 2
  TOXICITY VALUES MEAN: 1.072 O. D.
U1 cells; 0.2 ug/ml, exp 2
  TOXICITY VALUES MEAN: 1.031 O. D.
U1 cells; 0.625 ug/ml, exp 1
  TOXICITY VALUES (MTS) MEAN: 1.791 O. D.
U1 cells; 0.625 ug/ml, exp 2
  % CC: 81.6%
  TOXICITY VALUES MEAN: 0.868 O. D.
U1 cells; 2 ug/ml, exp 1
  TOXICITY VALUES (MTS) MEAN: 1.732 O. D.
U1 cells; 2 ug/ml, exp 2
  % CC: 82.3%
  TOXICITY VALUES MEAN: 0.876 O. D.
U1 cells; 6.25 ug/ml [c2], exp 2
  % CC: 35.3%
  TOXICITY VALUES MEAN: 0.376 O. D.
U1 cells; 6.25 ug/ml [c4], exp 2
  TOXICITY VALUES MEAN: 1.118 O. D.
U1 cells; 6.25 ug/ml, exp 1
  TOXICITY VALUES (MTS) MEAN: 1.649 O. D.
U1 cells; 20 ug/ml, exp 1
  % CC: 91.7%
  TOXICITY VALUES (MTS) MEAN: 1.625 O. D.
U1 cells; 20 ug/ml, exp 2
  % CC: 61.7%
  TOXICITY VALUES MEAN: 0.658 O. D.
U1 cells; 62.5 ug/ml, exp 1
  % CC: 77.8%
  TOXICITY VALUES (MTS) MEAN: 1.379 O. D.
U1 cells; 200 ug/ml, exp 1
  % CC: 3.6%
  TOXICITY VALUES (MTS) MEAN: 0.063 O. D.
U1 cells; 200 ug/ml, exp 2
  % CC: 7.1%
  TOXICITY VALUES MEAN: 0.076 O. D.
U1 cells; U1, experiment 1, Table 1
  TC50: 114
U1 cells; U1, experiment 2, Table 1
  TC50: 39
U1 cells; exp 2
  U1 TC50: 38.8 µg/mL
U1 cells; exp 2, listed as COMPOUND Z
  U1 TC50: TC50 (uglml) = 38.80 μg/ml
PBMCs
  non-toxic to PBMCs at concentrations: above 400 μg/ml
